Values of other authors, collected in US20050182136A1, “N-acetylcysteine compositions and methods for the treatment and prevention of endothelial dysfunction” (priority 2004, published 2005).

Key:
[1] = animal experiments, daily NAC dose of 150 mg/kg, over no treatment
[2] = patients with end-stage renal failure, 600 mg twice a day
[3] = oral NAC, intravenous contrast agents
[4] = relative to NAC

| SMILES | cysteine levels [1] | glutathione levels [1] | various adverse cardiovascular events [2] | increase of serum creatinine after the administration of the contrast agent [3] | bioactive at doses less than NAC [4] |
| --- | --- | --- | --- | --- | --- |
| CC(=O)N[C@@H](CS)C(=O)O [NAC, N-acetylcysteine] | substantially increase | substantially increase | significantly reduced | significant reduction | – |
| CC(=O)N[C@@H](CSSC[C@H](NC(C)=O)C(=O)O)C(=O)O [oxidized form of NAC, di-N-acetylcysteine] | – | – | – | – | 10-100 fold |
